Like-named read-outs stand apart in the source and are kept apart here.
How the values were obtained:
hTRPA1 [1] = target: T1, hTRPA1 (Homo sapiens, UniProt O75762, K186N); experiment: TRPA1 patch clamp (perforated patch, AITC-activated current); format: cell-based
T1 construct: expressed in transfected cells; host or cells: HEK293/TREx (Invitrogen), induced with tetracycline
Source text: Patch clamp experiments permit the detection of currents through the TRPA1 channel in the cell line described above. To permit recording of current at a stable level and prevent the “rundown” observed by other labs, it is necessary to use the perforated patch technique, which prevents dialysis of the cytoplasm with the pipette solution. In normal whole-cell patch clamp recordings, a glass electrode is brought into contact with a single cell and a high-resistance (gigaohm) seal is established with the cell membrane. The membrane is then ruptured to achieve the whole-cell configuration, permitting control of the voltage of the cell membrane and measurement of currents flowing across the membrane using the amplifier attached to the electrode and resulting in the replacement of cytoplasm with the pipette solution. In contrast, in the perforated patch mode, an antibiotic, amphotericin, is present in the pipette solution and diffuses into contact with the cell after the seal is achieved, over the course of several minutes. The amphotericin forms ion-permeable pores in the membrane under the pipette, permitting passage of some ions but maintaining most native cytosolic components. A perfusion system permits control of the extracellular solution, including the addition of blockers and activators of the current. The current can be activated by addition of 5 μM AITC to the solution. […] In some cases, cells were grown in low density overnight on glass coverslips. Patch clamp recordings were made in the whole-cell mode with a holding potential of −40 mV. Every 5 seconds, a voltage ramp was applied from −120 to +100 mV, 400 ms in duration. Currents elicited were quantified at −80 mV and +80 mV. […] The external solution consisted of 150 mM NaCl, 4.5 mM KCl, 3 mM MgCl2, 10 mM HEPES, […], 1 mM EGTA, pH 7.4. Upon addition of AITC, TRPA1 current was induced only in TRPA1-expressing cells and not in parental HEK293 TREx cells. Removal of the AITC stimulus causes most of the current to go away. Potential blockers were tested for ability to block both inward and outward currents in the continued presence of AITC.

hTRPA1 [2] = target: T1, hTRPA1; experiment: High throughput Ca2+ fluorescence (Fluo4) assay, AITC stimulation; format: cell-based
In short: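 Tetracycline-induced HEK293/TREx cells loaded with 1 μM Fluo4/AM for 60 min at room temperature. Compound added for 2 min after a 4-frame baseline, then AITC; fluorescence followed ~3 min.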

hNaV1.2 = hNaV1.2 (Homo sapiens, UniProt Q99250); experiment: hNaV1.2 patch clamp (Qpatch) selectivity; format: cell-based
Chain of hNaV1.2 (Q99250 whole entry): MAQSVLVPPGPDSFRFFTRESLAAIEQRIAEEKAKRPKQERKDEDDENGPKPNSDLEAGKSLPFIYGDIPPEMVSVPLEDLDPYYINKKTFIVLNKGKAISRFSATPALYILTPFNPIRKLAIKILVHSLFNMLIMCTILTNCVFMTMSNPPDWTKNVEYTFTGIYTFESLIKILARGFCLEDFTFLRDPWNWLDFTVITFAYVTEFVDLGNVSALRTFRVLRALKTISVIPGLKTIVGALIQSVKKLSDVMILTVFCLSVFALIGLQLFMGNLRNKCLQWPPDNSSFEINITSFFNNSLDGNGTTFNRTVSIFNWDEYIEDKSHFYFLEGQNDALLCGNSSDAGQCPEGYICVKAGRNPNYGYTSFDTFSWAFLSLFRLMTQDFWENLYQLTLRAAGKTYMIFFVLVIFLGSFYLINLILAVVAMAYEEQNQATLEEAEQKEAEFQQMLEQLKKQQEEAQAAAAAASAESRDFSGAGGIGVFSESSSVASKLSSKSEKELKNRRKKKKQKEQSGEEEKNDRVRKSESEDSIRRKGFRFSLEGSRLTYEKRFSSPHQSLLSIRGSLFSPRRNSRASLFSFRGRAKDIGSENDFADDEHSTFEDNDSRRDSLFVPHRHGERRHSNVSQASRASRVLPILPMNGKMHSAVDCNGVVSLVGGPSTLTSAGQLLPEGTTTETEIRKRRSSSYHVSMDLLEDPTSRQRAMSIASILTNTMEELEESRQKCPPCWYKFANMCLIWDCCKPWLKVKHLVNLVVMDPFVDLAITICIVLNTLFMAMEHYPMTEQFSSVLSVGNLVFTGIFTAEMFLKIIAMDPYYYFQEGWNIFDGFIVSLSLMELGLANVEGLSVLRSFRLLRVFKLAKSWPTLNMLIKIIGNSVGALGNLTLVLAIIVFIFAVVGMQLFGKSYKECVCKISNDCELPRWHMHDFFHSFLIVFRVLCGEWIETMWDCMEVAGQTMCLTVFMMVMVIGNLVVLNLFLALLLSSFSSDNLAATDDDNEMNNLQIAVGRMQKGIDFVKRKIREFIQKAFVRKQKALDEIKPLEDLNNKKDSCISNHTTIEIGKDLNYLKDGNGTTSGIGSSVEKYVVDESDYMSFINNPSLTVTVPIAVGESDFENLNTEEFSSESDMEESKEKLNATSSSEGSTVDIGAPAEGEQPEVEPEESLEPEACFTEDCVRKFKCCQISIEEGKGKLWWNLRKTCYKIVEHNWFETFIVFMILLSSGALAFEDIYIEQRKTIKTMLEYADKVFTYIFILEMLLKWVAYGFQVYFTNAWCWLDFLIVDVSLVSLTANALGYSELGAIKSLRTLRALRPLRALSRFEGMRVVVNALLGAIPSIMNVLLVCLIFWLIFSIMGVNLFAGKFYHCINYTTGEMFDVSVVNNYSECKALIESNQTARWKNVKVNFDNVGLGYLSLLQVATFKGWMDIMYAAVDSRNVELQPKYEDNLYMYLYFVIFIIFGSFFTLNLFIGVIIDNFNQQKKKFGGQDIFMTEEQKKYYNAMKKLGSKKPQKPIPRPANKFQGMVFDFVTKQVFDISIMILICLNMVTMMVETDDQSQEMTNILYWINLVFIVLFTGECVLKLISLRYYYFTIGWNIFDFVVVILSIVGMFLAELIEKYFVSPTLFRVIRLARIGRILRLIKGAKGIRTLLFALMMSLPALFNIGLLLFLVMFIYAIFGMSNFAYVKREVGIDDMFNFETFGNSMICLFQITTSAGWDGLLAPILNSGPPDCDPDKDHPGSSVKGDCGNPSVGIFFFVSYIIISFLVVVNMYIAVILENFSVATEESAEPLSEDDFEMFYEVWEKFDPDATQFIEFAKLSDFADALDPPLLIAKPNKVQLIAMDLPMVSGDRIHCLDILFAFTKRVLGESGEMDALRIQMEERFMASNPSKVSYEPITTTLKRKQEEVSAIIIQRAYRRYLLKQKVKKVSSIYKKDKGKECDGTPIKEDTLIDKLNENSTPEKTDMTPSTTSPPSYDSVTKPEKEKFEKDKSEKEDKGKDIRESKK

hERG = hERG (Homo sapiens, UniProt Q12809); experiment: hERG patch clamp (Qpatch) selectivity; conditions: for selectivity ratio: human, selective for TRPA1 over hERG
Chain of hERG (Q12809 whole entry): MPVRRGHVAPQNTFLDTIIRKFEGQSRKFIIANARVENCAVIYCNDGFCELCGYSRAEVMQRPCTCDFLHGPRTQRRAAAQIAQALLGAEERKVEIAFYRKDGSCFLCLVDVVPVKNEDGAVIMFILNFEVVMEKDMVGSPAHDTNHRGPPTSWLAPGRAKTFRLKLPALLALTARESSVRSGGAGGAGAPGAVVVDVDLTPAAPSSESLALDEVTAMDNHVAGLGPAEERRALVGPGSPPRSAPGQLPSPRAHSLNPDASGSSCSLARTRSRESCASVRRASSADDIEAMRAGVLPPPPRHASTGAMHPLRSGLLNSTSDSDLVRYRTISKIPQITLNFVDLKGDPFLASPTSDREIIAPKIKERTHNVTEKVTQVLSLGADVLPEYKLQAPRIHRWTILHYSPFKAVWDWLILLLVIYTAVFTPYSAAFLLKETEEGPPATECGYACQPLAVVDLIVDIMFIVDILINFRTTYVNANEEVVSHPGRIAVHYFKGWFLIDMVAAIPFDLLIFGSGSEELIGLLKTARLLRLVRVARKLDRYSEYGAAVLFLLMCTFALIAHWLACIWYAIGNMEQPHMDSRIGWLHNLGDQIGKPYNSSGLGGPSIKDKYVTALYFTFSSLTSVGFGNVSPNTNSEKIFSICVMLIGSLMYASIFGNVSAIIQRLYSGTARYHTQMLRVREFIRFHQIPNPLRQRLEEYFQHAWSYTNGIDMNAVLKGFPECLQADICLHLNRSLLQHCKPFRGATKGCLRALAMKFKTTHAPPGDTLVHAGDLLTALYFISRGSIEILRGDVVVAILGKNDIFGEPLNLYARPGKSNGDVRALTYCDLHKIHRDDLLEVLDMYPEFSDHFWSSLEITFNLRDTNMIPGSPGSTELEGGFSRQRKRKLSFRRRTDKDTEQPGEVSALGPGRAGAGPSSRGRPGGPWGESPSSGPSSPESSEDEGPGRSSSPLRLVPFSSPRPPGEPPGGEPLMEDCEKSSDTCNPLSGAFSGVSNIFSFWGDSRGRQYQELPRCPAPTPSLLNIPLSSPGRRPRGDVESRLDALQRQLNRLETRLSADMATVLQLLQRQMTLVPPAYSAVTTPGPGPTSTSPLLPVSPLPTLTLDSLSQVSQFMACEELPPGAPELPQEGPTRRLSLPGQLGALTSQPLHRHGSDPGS

hTRPV4 = hTRPV4 (Homo sapiens, UniProt Q9HBA0); experiment: hTRPV4 patch clamp selectivity; format: cell-based; conditions: Table 2
Chain of hTRPV4 (Q9HBA0 whole entry): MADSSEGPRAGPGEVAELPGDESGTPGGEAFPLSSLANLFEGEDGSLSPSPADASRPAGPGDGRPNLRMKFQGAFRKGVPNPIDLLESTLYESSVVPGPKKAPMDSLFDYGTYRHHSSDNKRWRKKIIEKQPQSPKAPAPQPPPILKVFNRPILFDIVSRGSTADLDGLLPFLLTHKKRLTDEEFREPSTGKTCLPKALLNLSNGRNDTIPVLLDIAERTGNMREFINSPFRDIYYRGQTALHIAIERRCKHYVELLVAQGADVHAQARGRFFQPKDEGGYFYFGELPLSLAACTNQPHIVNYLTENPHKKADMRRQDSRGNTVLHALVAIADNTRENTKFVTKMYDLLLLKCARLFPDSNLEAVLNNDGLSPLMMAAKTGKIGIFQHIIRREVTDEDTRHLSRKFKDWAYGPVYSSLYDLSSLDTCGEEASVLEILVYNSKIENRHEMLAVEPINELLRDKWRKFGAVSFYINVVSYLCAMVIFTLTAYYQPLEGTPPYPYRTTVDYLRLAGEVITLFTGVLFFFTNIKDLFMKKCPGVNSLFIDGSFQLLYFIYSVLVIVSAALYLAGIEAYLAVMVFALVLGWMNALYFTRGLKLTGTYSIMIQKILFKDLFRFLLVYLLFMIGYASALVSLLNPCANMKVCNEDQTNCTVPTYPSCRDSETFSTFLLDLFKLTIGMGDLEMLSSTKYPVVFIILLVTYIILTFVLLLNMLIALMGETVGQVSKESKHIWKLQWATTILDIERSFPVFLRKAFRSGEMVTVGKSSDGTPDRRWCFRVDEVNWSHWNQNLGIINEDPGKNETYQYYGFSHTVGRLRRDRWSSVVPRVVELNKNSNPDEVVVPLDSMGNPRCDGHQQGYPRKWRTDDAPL

hTRPV3 = target: T2, hTRPV3 (Homo sapiens, UniProt Q8NET8); experiment: hTRPV3 patch clamp selectivity; format: cell-based; conditions: Table 2
T2 sequence (Q8NET8 1-790): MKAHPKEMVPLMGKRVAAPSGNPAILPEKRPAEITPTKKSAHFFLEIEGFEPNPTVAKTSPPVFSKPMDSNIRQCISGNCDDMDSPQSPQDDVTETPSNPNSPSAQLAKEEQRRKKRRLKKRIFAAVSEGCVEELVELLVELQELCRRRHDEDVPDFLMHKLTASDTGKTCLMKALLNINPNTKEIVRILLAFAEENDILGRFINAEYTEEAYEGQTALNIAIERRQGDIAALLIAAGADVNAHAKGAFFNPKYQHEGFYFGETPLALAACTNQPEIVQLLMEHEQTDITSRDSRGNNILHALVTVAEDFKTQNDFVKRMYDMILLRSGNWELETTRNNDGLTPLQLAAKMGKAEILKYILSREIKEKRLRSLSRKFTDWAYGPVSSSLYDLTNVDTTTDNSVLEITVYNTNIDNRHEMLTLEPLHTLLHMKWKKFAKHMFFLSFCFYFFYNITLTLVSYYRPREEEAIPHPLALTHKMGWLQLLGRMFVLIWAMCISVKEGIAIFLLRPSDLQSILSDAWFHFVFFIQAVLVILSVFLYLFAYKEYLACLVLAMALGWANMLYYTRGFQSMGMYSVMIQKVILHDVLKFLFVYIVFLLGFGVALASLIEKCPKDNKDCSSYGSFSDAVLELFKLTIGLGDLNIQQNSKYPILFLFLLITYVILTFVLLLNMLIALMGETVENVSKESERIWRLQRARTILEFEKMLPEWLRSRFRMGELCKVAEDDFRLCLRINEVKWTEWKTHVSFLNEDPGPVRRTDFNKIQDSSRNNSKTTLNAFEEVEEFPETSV

[3] = Table 1, read-out: hTRPA1 Patch IC50
[4] = Table 1, read-out: hTRPA1 Fluo4 IC50
[5] = Table 2, inward current, read-out: hTRPA1 Patch Inwd IC50
[6] = Table 2, read-out: hTRPA1 Fluor IC50
[7] = Table 2, read-out: hNaV1.2 IC50

T1 sequence (O75762 whole entry K186N): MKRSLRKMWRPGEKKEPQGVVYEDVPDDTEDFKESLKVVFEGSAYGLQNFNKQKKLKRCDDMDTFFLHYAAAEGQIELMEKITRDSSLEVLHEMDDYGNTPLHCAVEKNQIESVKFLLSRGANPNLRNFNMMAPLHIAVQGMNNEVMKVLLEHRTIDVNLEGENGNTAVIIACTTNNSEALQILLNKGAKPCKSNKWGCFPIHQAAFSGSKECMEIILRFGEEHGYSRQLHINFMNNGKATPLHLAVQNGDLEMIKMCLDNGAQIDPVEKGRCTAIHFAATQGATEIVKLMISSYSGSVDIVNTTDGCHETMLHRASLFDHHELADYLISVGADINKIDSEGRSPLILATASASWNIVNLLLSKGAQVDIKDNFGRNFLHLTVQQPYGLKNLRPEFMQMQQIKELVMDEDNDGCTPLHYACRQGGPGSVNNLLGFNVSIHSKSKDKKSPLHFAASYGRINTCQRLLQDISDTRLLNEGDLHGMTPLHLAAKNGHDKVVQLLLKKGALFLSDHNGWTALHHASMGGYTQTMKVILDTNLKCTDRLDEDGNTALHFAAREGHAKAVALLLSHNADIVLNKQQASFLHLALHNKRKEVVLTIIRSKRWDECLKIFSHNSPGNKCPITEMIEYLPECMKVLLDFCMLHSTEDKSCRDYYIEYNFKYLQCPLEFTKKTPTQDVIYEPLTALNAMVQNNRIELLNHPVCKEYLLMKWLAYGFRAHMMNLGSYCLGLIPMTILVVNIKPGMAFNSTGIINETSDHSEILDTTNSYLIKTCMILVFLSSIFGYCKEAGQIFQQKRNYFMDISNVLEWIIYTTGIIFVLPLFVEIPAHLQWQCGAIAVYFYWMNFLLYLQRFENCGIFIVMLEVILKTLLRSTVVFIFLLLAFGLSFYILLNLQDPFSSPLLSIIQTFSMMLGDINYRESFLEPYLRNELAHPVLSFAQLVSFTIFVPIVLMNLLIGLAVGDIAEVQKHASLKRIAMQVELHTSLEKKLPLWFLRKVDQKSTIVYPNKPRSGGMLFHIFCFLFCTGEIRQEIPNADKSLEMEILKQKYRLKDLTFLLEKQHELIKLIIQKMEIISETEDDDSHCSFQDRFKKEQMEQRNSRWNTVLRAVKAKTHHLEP

| Compound | IC50 (hTRPA1 [1]; [3]) [µM] | IC50 (hTRPA1 [2]; [4]) [µM] | IC50 (hTRPA1 [1]; [5]) [µM] | IC50 (hTRPA1 [2]; [6]) [µM] | IC50 (hERG; hERG IC50 (nM), Table 2) [nM] | also measured |
| --- | --- | --- | --- | --- | --- | --- |
| CCOC(=O)C1=C(c2ccccc2)NC(=S)NC1c1cc(O)ccc1Br (stereo not shown) [drawing 49] | ≤ 1 | ≤ 1 | – | – | – | selective for TRPA1 over NaV1.2 (hNaV1.2; Table 1): ≥ 40 fold; IC50 (hNaV1.2; Table 1, read-out: hNaV1.2 Qpatch IC50): ≥ 30 µM; IC50 (hERG; hERG Qpatch IC50 (nM), Table 1): ≥ 20000 nM; selectivity ratio (hERG; Table 1): ≥ 30 |
| CCC(C)c1ccc(NC(=O)Cn2cnc3c2c(=O)n(C)c(=O)n3C)cc1 (stereo not shown) [Compound 215] | – | – | ≤ 1 | ≤ 5 | ≥ 10000 | selective for TRPA1 over NaV1.2 (hNaV1.2; Table 2): ≥ 55 fold; IC50 (hNaV1.2; [7]): ≥ 30 µM; selectivity ratio (hERG; Table 2): ≥ 25 |
| CCOC(=O)C1=C(c2ccccc2)NC(=S)NC1c1ccccc1Cl (stereo not shown) | ≤ 5 | > 10 | – | – | – | IC50 (hERG; hERG Qpatch IC50 (nM), Table 1): ≥ 20000 nM; selectivity ratio (hERG; Table 1): ≥ 10 |
| CCOC(=O)C1=C(c2ccccc2)NC(=S)NC1c1ccccc1Br (stereo not shown) | ≤ 5 | > 10 | – | – | – | IC50 (hERG; hERG Qpatch IC50 (nM), Table 1): > 10000 nM; selectivity ratio (hERG; Table 1): ≥ 5 |
| Cn1c(=O)c2c(ncn2CC(=O)Nc2ccc(Cl)c(Cl)c2)n(C)c1=O [Compound 217] | – | – | ≤ 1 | ≤ 10 | ≥ 20000 | selective for TRPA1 over NaV1.2 (hNaV1.2; Table 2): ≥ 50 fold; IC50 (hNaV1.2; [7]): ≥ 30 µM; selectivity ratio (hERG; Table 2): ≥ 45 |
| COc1cc([N+](=O)[O-])ccc1NC(=O)Cn1cnc2c1c(=O)n(C)c(=O)n2C [Compound 229] | – | – | ≤ 1 | ≤ 5 | – | – |
| COC(=O)C1=C(C)N(C)C(=O)NC1c1ccc(F)c(F)c1 (stereo not shown) | ≤ 1 | ≤ 5 | – | – | – | – |
| Cn1c(=O)c2c(ncn2CC(=O)Nc2nccs2)n(C)c1=O [Compound 225] | – | – | > 10 | > 10 | – | – |
| Cn1c(=O)c2c(ncn2CC(=O)Nc2ccc(Br)cc2)n(C)c1=O [Compound 219] | – | – | ≤ 5 | ≤ 5 | ≥ 20000 | selective for TRPA1 over NaV1.2 (hNaV1.2; Table 2): ≥ 25 fold; IC50 (hNaV1.2; [7]): ≥ 30 µM; selective for TRPA1 over hERG (hERG; Table 2): ≥ 15 fold |
| Cn1c(=O)c2c(ncn2CC(=O)Nc2nc(-c3ccc(Br)cc3)cs2)n(C)c1=O [Compound 232] | – | – | ≤ 0.5 | ≤ 1 | ≥ 30000 | selective for TRPA1 over NaV1.2 (hNaV1.2; Table 2): ≥ 75 fold; IC50 (hNaV1.2; [7]): ≥ 30 µM; selectivity ratio (hERG; Table 2): ≥ 75 |
| Cn1c(=O)c2c(ncn2CC(=O)NCc2cccnc2)n(C)c1=O [Compound 206] | – | – | ≤ 10 | > 10 | – | – |
| CCOc1ccc(C2NC(=S)NC(C)=C2C(=O)OC)cc1 (stereo not shown) | ≤ 10 | ≤ 5 | – | – | – | – |
| COC(=O)C1=C(C)N(C)C(=O)NC1c1cc(O)ccc1Br (stereo not shown) | ≤ 5 | ≤ 5 | – | – | – | – |
| COc1ccc(NC(=O)Cn2cnc3c2c(=O)n(C)c(=O)n3C)cc1 [Compound 207] | – | – | ≤ 10 | > 10 | – | – |
| Cn1c(=O)c2c(ncn2CC(=O)Nc2ccc(C#N)cc2)n(C)c1=O [Compound 214] | – | – | ≤ 10 | ≤ 10 | – | – |
| Cn1c(=O)c2c(ncn2CC(=O)Nc2ccc(Br)cc2)n(C)c1=O [Compound 202] | – | – | ≤ 5 | ≤ 5 | > 10000 | selective for TRPA1 over hERG (hERG; Table 2): ≥ 5 fold |
| Cn1c(=O)c2c(ncn2CC(=O)Nc2cccc(C(F)(F)F)c2)n(C)c1=O [Compound 226] | – | – | ≤ 10 | ≤ 5 | > 10000 | selective for TRPA1 over NaV1.2 (hNaV1.2; Table 2): ≥ 5 fold; IC50 (hNaV1.2; [7]): ≥ 30 µM; selectivity ratio (hERG; Table 2): ≥ 2 |
| COC(=O)C1=C(C)N(C)C(=O)NC1c1ccc(O)c(Cl)c1 (stereo not shown) | > 10 | ≤ 5 | – | – | – | – |
| CCOC(=O)C1=C(c2ccccc2)NC(=S)NC1c1ccc(OC(C)C)cc1 (stereo not shown) | > 10 | ≥ 20 | – | – | – | – |
| COC(=O)C1=C(C)N(C)C(=O)NC1c1cccc(Br)c1 (stereo not shown) | > 10 | ≤ 5 | – | – | – | – |

Further lines, with some results ahead:

| IC50 (hTRPA1 [1]; [3]) [µM] | IC50 (hTRPA1 [2]; [4]) [µM] | IC50 (hTRPA1 [1]; [5]) [µM] | IC50 (hTRPA1 [2]; [6]) [µM] | Compound | IC50 (hERG; hERG IC50 (nM), Table 2) [nM] | also measured |
| --- | --- | --- | --- | --- | --- | --- |
| – | – | ≤ 0.5 | ≤ 5 | CCc1ccc(-c2csc(NC(=O)Cn3cnc4c3c(=O)n(C)c(=O)n4C)n2)cc1 [Compound 271] | ≥ 30000 | selectivity ratio (hERG; Table 2): ≥ 150 |
| – | – | ≤ 1 | ≤ 1 | Cn1c(=O)c2c(ncn2CC(=O)Nc2ccc3c(c2)OC2(CCCCC2)O3)n(C)c1=O [Compound 347] | ≥ 20000 | IC50 (hTRPV4): > 10 µM; selective for TRPA1 over TRPV4 (hTRPV4): ≥ 15 fold; selectivity ratio (hERG; Table 2): ≥ 45 |
| – | – | ≤ 5 | ≤ 5 | Cn1c(=O)c2c(ncn2CC(=O)Nc2nc3ccccc3s2)n(C)c1=O [Compound 239] | – | selective for TRPA1 over TRPV3 (hTRPV3): ≥ 4 fold; IC50 (hTRPV3; read-out: hTRPV3 P1 inward IC50): ≤ 10 µM |
| – | – | ≤ 0.5 | ≤ 5 | CCOc1ccc(Oc2ccc(NC(=O)Cn3cnc4c3c(=O)n(C)c(=O)n4C)cc2)cc1 [Compound 284] | ≤ 5000 | selectivity ratio (hERG; Table 2): ≥ 10 |
| – | – | ≤ 10 | > 10 | Cn1c(=O)c2c(ncn2CC(=O)Nc2ccc3c(c2)OCO3)n(C)c1=O [Compound 237] | – | – |
| – | – | ≤ 1 | ≤ 5 | CC(C(=O)Nc1ccc(Cl)cc1)n1cnc2c1c(=O)n(C)c(=O)n2C (stereo not shown) [Compound 300] | – | – |
| – | – | ≤ 10 | ≤ 10 | Cn1c(=O)c2c(ncn2CC(=O)NCCSCc2ccccc2)n(C)c1=O [Compound 329] | – | – |
| – | – | ≤ 1 | ≤ 5 | Cn1c(=O)c2c(ncn2CC(=O)Nc2ccc(-c3ccccc3)cc2)n(C)c1=O [Compound 294] | – | – |
| – | – | > 10 | > 10 | Cn1c(=O)c2c(ncn2CC(=O)Nc2ccccc2N2CCCC2)n(C)c1=O [Compound 350] | – | – |
| – | – | ≤ 10 | ≤ 5 | COc1ccc2nc(NC(=O)Cn3cnc4c3c(=O)n(C)c(=O)n4C)sc2c1 [Compound 234] | – | – |

— patent US7671061B2, “Methods and compositions for treating pain” (Hydra Biosciences, Inc., priority 2005, dated 2010)
